Here are results for one compound from publication PMC10349806 (Nature Communications, 2023).

Several values for one entry are separate records, joined by “and”; a condition that tells them apart may be missing. Identical values can stand only once.

The target in one experiment is T1, PfCRT variant E232A (Plasmodium falciparum, UniProt Q9N623, A220S/E232A/I356T/K76T/M74I/N326S/N75E/Q271E/R371I).
T1 sequence (Q9N623 1-424 M74I/N75E/K76T/A220S/E232A/Q271E/N326S/I356T/R371I): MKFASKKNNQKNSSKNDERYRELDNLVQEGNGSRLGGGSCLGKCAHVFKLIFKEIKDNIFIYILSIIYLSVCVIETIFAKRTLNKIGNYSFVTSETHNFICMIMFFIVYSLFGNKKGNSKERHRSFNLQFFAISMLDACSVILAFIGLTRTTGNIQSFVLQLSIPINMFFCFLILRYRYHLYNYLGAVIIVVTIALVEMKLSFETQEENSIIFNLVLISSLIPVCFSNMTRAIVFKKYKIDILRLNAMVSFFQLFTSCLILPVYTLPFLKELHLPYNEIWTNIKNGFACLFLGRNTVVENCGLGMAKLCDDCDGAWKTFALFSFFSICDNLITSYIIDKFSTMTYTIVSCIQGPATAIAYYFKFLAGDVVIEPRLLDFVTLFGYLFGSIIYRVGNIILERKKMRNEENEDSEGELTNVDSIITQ
The experiment can be described thus: CQ uptake assay, oocytes expressing E232A. The class given is cell-based. The method, then: (§1) Site-directed mutagenesis of PfCRT^Dd2 was performed as described using the megaprimer method with overlap extension[21],[54]. The primer pairs used are listed in Supplementary Table 6. Please note that a codon-optimized and oocyte-adapted version of PfCRT^Dd2 was used[22] (Supplementary Fig. 16). The resulting DNA fragment was cloned into the SP64T expression vector and verified by sequencing.
(§2) Oocytes were obtained as described previously. Briefly, adult (>2 years old) female X. laevis frogs (NASCO) were anesthetized in a cooled solution of ethyl 3-amino benzoate methanesulfonate (0.1%, w/v), followed by a surgical removal of parts of the ovary. The ovary lobes were carefully dissected and small pieces of oocytes were incubated in Ca^2+-free ND96 buffer (96 mM NaCl, 2 mM KCl, 1 mM MgCl2 buffered with 5 mM HEPES/NaOH, pH 7.5) supplemented with collagenase D (0.1%, w/v; Roche), BSA (0.5%, w/v), and 9 mm Na2HPO4 at 18 °C for 14-16 h while gentle shaking. After incubation, the oocytes were carefully washed several times with ND96 buffer (96 mM NaCl, 2 mM KCl, 1.8 mM CaCl2, 1 mM MgCl2 buffered with 5 mM HEPES/NaOH, pH 7.5) supplemented with 100 mg l^−1 gentamycin). Defolliculated and healthy-looking stage V-VI oocytes were manually selected for RNA microinjection. The RNA was generated as following: The codon-optimized sequences of PfCRT variants were cloned into the pSP64T expression vector. After vector linearization using the restriction endonucleases BamHI or SalI (New England Biolabs), transcription was performed using the in vitro SP6 mMessage mMachine Kit (Ambion)[34]. The obtained RNA was kept at −80 °C and diluted with nuclease-free water to a concentration of 0.6 μg μl^−1. Precision-bore glass capillary tubes (3.5-inch glass capillaries; Drummond Scientific Co.) were pulled on a vertical puller (P-87 Flaming/Brown micropipette puller, Sutter Instrument Co.), graduated, and placed on a microinjector (Nanoject II Auto-Nanoliter Injector, Drummond Scientific Co.). 50 nl of nuclease-free water alone (control oocytes) or 50 nl of 0.6 μg μl^−1 RNA were injected under stereomicroscopic control. Injected oocytes were incubated for 46–72 h at 18 °C with twice-daily buffer changes before usage in experiments.
Drug uptake assays were performed as described previously[21],[22],[24],[34]. […] The direction of radio-labeled drug transport is here from the mostly acidic extracellular solution (pH 4.5 or 6.0, as indicated) into the oocyte cytosol (pH ∼ 7.2), which corresponds to the efflux of drug from the acidic digestive vacuole (pH 5.2) into the parasite cytoplasm (pH 7.2). The topology of PfCRT in the oolemma is such that both the N- and C-terminus face the extracellular milieu[3],[22]. In the parasite, the N- and C-terminus face the lumen of the digestive vacuole. […] For determination of the amount of drug uptake for each oocyte, the reaction medium was removed and the oocytes were washed three times with 2 ml of ice-cold ND96 buffer. Each oocyte was individually transferred to a scintillation vial containing 5% sodium dodecyl sulfate (200 μl) for lysis. […] Oocytes that were injected with water instead of RNA were analyzed in parallel, representing the uptake of a drug by diffusion and/or endogenous permeation pathways. […] The specific PfCRT-mediated uptake was determined by subtracting the corresponding background value measured in water-injected oocytes from that of PfCRT-expressing oocytes. […]

A further experiment relates to PfCRT variant E207I. In words: CQ uptake assay, oocytes expressing E207I. The experiment is classed as cell-based, Plasmodium falciparum. As to the method:
as §1, §2
Drug uptake assays were performed as described previously[21],[22],[24],[34]. […] The direction of radio-labeled drug transport is here from the mostly acidic extracellular solution (pH 4.5 or 6.0, as indicated) into the oocyte cytosol (pH ∼ 7.2), which corresponds to the efflux of drug from the acidic digestive vacuole (pH 5.2) into the parasite cytoplasm (pH 7.2). The topology of PfCRT in the oolemma is such that both the N- and C-terminus face the extracellular milieu[3],[22]. In the parasite, the N- and C-terminus face the lumen of the digestive vacuole. […] For determination of the amount of drug uptake for each oocyte, the reaction medium was removed and the oocytes were washed three times with 2 ml of ice-cold ND96 buffer. Each oocyte was individually transferred to a scintillation vial containing 5% sodium dodecyl sulfate (200 μl) for lysis. […] Oocytes that were injected with water instead of RNA were analyzed in parallel, representing the uptake of a drug by diffusion and/or endogenous permeation pathways. The resulting value represents the “background“ level of drug accumulation in oocytes (in-depth discussion in[22]). The specific PfCRT-mediated uptake was determined by subtracting the corresponding background value measured in water-injected oocytes from that of PfCRT-expressing oocytes. In all cases, at least three separate experiments were performed on oocytes from different frogs (biological replicate), and for each condition in an experiment, measurements were made from 10 oocytes per treatment. For pH 5.5, 6.0, and 6.5, ND96 was buffered with 5 mM MES/Tris base.

Where [1] appears, read: E207I, 50 µM CQ, 1 h, mean ± SEM.

Consider `CCN(CC)CCCC(C)Nc1ccnc2cc(Cl)ccc12` (centres unmarked) [CQ, chloroquine], for which the “Activity at pH 4.5” value on PfCRT variant E232A (E232A, 50 µM CQ, 1 h, mean ± SEM) is 1.07 ± 0.12 pmol h-1 oocyte-1; in the experiment on PfCRT variant E207I (setting [1]), 2.05 ± 0.22 pmol h-1 oocyte-1. Further, the R-value at PfCRT variant E232A (E232A, CQ transport at pH 4.5 / pH 6.0) was determined as 0.65 ± 0.06; with PfCRT variant E207I (E207I, CQ transport at pH 4.5 / pH 6.0), 0.95 ± 0.01. The “E232A transport activity pH 4.5” value at PfCRT variant E232A (pH 4.5, single replicates, Fig 1d left) was 1.05 pmol oocyte-1 h-1 and 1.32 pmol oocyte-1 h-1 and 1.01 pmol oocyte-1 h-1 and 0.62 pmol oocyte-1 h-1 and 1.37 pmol oocyte-1 h-1. The “E232A R-value” at PfCRT variant E232A (pH 4.5 vs pH 6.0, Fig 1d left) was 0.65 and 0.81 and 0.48 and 0.80. On PfCRT variant E232A (pH 6.0, single replicates, Fig 1d left), the “E232A transport activity pH 6.0” value is 1.62 pmol oocyte-1 h-1 and 1.63 pmol oocyte-1 h-1 and 2.09 pmol oocyte-1 h-1 and 1.28 pmol oocyte-1 h-1 and 1.71 pmol oocyte-1 h-1. In the experiment with PfCRT variant E207I (setting [1]), the “Activity at pH 6.0” value is on record as 2.15 ± 0.11 pmol h-1 oocyte-1. Also, the “E207I transport activity pH 4.5” value in the experiment with PfCRT variant E207I (pH 4.5, individual replicates, Fig 6b) was 2.06 pmol oocyte-1 h-1 and 2.31 pmol oocyte-1 h-1. The “E207I transport activity pH 6.0” value in the experiment on PfCRT variant E207I (pH 6.0, individual replicates, Fig 6b) was 2.16 pmol oocyte-1 h-1 and 1.90 pmol oocyte-1 h-1 and 2.38 pmol oocyte-1 h-1. Moreover, the “E207I R-value” in the experiment with PfCRT variant E207I (ratio of activity pH 4.5 / pH 6.0) is 0.95 and 0.93 and 0.97.
